Among the data in PubChem BioAssay (NCI) are TGI values, retold here.

Among the test systems are MCF7 breast; HCT-116 colon; NCI/ADR-RES ovarian; M14 melanoma; SN12C renal; UO-31 renal; HCC-2998 colon; DU-145 prostate; 786-0 renal; TK-10 renal; SK-OV-3 ovarian.
Common to all, as to experiment: NCI-60 cell line screen, 48 h

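Tested at 5 concentrations; 48 h exposure; 96-well plates; endpoints linearly interpolated, else capped at highest concentration. TGI is the concentration that stops growth completely.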

Regarding `O=P1(C(O)/C=C/c2ccccc2)N(Cc2ccccc2)[C@H](c2ccccc2)[C@@H](c2ccccc2)N1Cc1ccccc1` (some centres not stated), the TGI in the test on MCF7 breast is more than 100 µM; with HCT-116 colon, more than 100 µM; with NCI/ADR-RES ovarian it was more than 100 µM; with M14 melanoma, more than 100 µM; in the test on SN12C renal, more than 100 µM; in the test with UO-31 renal it was 98.3 µM. In addition, the TGI in the test on HCC-2998 colon is more than 100 µM; in the test with DU-145 prostate, more than 100 µM; in the test on 786-0 renal it was more than 100 µM; in the test on TK-10 renal, more than 100 µM; in the test on SK-OV-3 ovarian, more than 81.8 µM.
As to `CC(=N\N)/C(C)=N/N=C(C)/C(C)=N/N=C(C)/C(C)=N/N=C(C)/C(C)=N/N`, the TGI with MCF7 breast, with HCT-116 colon, in the test with NCI/ADR-RES ovarian, with M14 melanoma, in the test with SN12C renal and in the test on UO-31 renal was more than 100 µM in each case. In addition, the TGI with HCC-2998 colon, in the test on DU-145 prostate, in the test on 786-0 renal, in the test with TK-10 renal and in the test with SK-OV-3 ovarian was more than 100 µM each time.
Turning to `O=C1/C(=C/c2ccccc2)CCCC1CN1CCCCC1` (configuration not stated), the TGI with MCF7 breast stood at 1.69 µM; in the test with HCT-116 colon, 3.15 µM; in the test on NCI/ADR-RES ovarian, 13 µM; in the test with M14 melanoma, 3.36 µM; with SN12C renal, 18.5 µM; in the test on UO-31 renal, 3.82 µM. Also, the TGI in the test on HCC-2998 colon was determined as 29 µM; in the test on DU-145 prostate, 27.3 µM; with 786-0 renal, 4.26 µM; with TK-10 renal, 8.02 µM; with SK-OV-3 ovarian, 31 µM.
In the case of `C=CCOC(=O)N1[C@H]2C#C/C=C\C#C[C@]3(O)C(=O)C[C@H](C)[C@]24O[C@]43C2=CC(=O)C=CC21OC` (some centres not stated), the TGI in the test on MCF7 breast was more than 100 µM; in the test with HCT-116 colon, 44.6 µM; with NCI/ADR-RES ovarian, more than 100 µM; in the test on M14 melanoma, more than 100 µM; in the test on SN12C renal it was 67.4 µM; in the test with UO-31 renal it was more than 100 µM. Further, the TGI with HCC-2998 colon is 77.6 µM; in the test on DU-145 prostate it was more than 100 µM; with 786-0 renal, 38.7 µM; with TK-10 renal, 63.7 µM; with SK-OV-3 ovarian it was more than 100 µM.
Turning to `NNC(=O)CSc1nc2ccc(I)cc2c(=O)n1Cc1ccccc1`, the TGI in the test on MCF7 breast was 59.4 µM; with HCT-116 colon, 43.2 µM; with NCI/ADR-RES ovarian, more than 100 µM; in the test on M14 melanoma, 40.4 µM; in the test with SN12C renal, 48.6 µM; in the test on UO-31 renal, 35.4 µM. Besides, the TGI is 55.6 µM in the test on HCC-2998 colon; more than 100 µM in the test with DU-145 prostate; 30.7 µM in the test on 786-0 renal; 38.7 µM with TK-10 renal; 32.7 µM in the test on SK-OV-3 ovarian.
As for `COC(=O)CCc1cc(OC)c(O)c(C(Cc2ccc(OC)c(OC)c2)C(=O)OC)c1` (configuration not stated), the TGI in the test on MCF7 breast, in the test on HCT-116 colon, with NCI/ADR-RES ovarian, with M14 melanoma, with SN12C renal and in the test with UO-31 renal was more than 100 µM each time. The TGI in the test with HCC-2998 colon, in the test with DU-145 prostate, in the test with 786-0 renal, in the test on TK-10 renal and in the test on SK-OV-3 ovarian was more than 100 µM throughout.
In the case of `Cc1c(C#N)c2nnn(-c3ccc(Cl)cc3)c(=O)n2c1-c1ccccc1`, the TGI is 19.5 µM with MCF7 breast; 10.9 µM in the test on HCT-116 colon; 16 µM with NCI/ADR-RES ovarian; 14 µM in the test on M14 melanoma; 3.85 µM with SN12C renal; more than 51.3 µM with UO-31 renal. For the same compound, the TGI in the test with HCC-2998 colon amounted to 0.201 µM; in the test with DU-145 prostate it was 8.44 µM; in the test with 786-0 renal, 7.59 µM; with TK-10 renal, 55 µM; in the test with SK-OV-3 ovarian, 30 µM.
As to `NC(=O)c1nnc2ccc(F)cc2c1N`, the TGI in the test with MCF7 breast, in the test on HCT-116 colon, with NCI/ADR-RES ovarian, with M14 melanoma, in the test with SN12C renal and with UO-31 renal was more than 100 µM in each case. For the same compound, the TGI in the test with HCC-2998 colon, with DU-145 prostate, with 786-0 renal, with TK-10 renal and in the test on SK-OV-3 ovarian was more than 100 µM each time.
With `CN(C)C(Cc1cnc[nH]1)C(=O)N1CCCC1C(N)=O` (configuration not stated), the TGI with MCF7 breast, in the test with HCT-116 colon, in the test with NCI/ADR-RES ovarian, in the test with M14 melanoma, in the test on SN12C renal and in the test with UO-31 renal was more than 100 µM each time. Further, the TGI in the test on HCC-2998 colon, in the test on DU-145 prostate, in the test on 786-0 renal, in the test on TK-10 renal and in the test with SK-OV-3 ovarian was more than 100 µM each time.
`CCCCCC(C)(C)CCC(=O)OC1OC(COC2OC(COC3OC(CO)C(O)C(O)C3O)C(O)C(O)C2O)C(O)C(O)C1O` (configuration not stated): the TGI with MCF7 breast, in the test with HCT-116 colon, with NCI/ADR-RES ovarian, with M14 melanoma, in the test on SN12C renal and in the test on UO-31 renal was more than 100 µM throughout. Also, the TGI in the test on HCC-2998 colon, in the test on DU-145 prostate, with 786-0 renal, with TK-10 renal and with SK-OV-3 ovarian was more than 100 µM each time.
In the case of `Cc1cc(N(CCC#N)CCC#N)ccc1/C(N=Nc1ccc(Cl)cc1)=N\NC(=O)c1cc(Cl)ccc1O`, the TGI in the test on MCF7 breast, in the test on HCT-116 colon, in the test on NCI/ADR-RES ovarian, with M14 melanoma, in the test on SN12C renal and in the test on UO-31 renal was more than 100 µM in each case. Besides, the TGI in the test with HCC-2998 colon was more than 100 µM; in the test on DU-145 prostate, more than 100 µM; in the test on 786-0 renal, more than 100 µM; with TK-10 renal, more than 100 µM; in the test with SK-OV-3 ovarian, 97.9 µM.
With `O=C(O)c1ccccc1NC(c1ccccc1)c1ccc2cccnc2c1O` (configuration not stated), the TGI is more than 62.4 µM in the test on MCF7 breast; more than 64.2 µM in the test with HCT-116 colon; more than 49.3 µM in the test with NCI/ADR-RES ovarian; 38.8 µM with M14 melanoma; more than 51.4 µM in the test on SN12C renal; 23.8 µM in the test with UO-31 renal. Besides, the TGI in the test on HCC-2998 colon was more than 100 µM; with DU-145 prostate it was more than 100 µM; with 786-0 renal it was 20.1 µM; with TK-10 renal it was 51.1 µM; with SK-OV-3 ovarian, more than 100 µM.
